Results on six substances are retold here after patent US20240209034A1 (priority 2021, published 2024).

*: point of attachment. Biotin = O=C1N[C@H]2[C@H](CS[C@H]2CCCCC(=O)*)N1

One data set in a line: normal mouse serum. The conditions noted are these: 37° C.

Take “Biotin-CAVPNLRGDLQVLAQKVCRTK-NH2 (cysteine pairing not given here)”: in “normal mouse serum” (up to 6 h), the cleaved bond result was “C18-arginine19”.

Take “Biotin-CAVPNLRGDLQVLAQKVCRTK-NH2 (cysteine pairing not given here) [C1C18 DFBP]”: the cleaved bond result in “normal mouse serum” (up to 6 h) is recorded as “C18-arginine19, 2 h”.

For the substance “Biotin-NCVPNLRGDLQVLAQKVCRDTKAD-NH2 (cysteine pairing not given here)”, the cleaved bond result in the data set “normal mouse serum” (up to 24 h) is given as “Asn1-C2”.

As to “Biotin-NCVPNLRGDLQVLAQKVCRTK-NH2 (cysteine pairing not given here)”, the cleaved bond result in “normal mouse serum” (up to 6 h) is given as “C18-arginine19, 2 h”.

For the substance “acetyl-NCVPhNLRGDLQVLADQKVCRDTKD-biotin [C2C18 Ph AD RDTKD DFBP]”, the “cell surface half-life (internalization)” value with BxPC-3 cells is recorded as 11.93 min.

Turning to biotin-NCVPhNLRGDLQVLAQKVCRDTKAD-amide, the cleaved bond entry in “normal mouse serum” (up to 24 h) is “Asn1-C2”.
